Paper PMC11167047 (Cell Death Discovery, 2024)

Tests used:
Assay in all cases: kinome screen (33PanQinase)
Type in all cases: biochemical
EPHA2 = biological target: T1, EPHA2 (Homo sapiens, UniProt P29317)
T1 construct: purchased Reaction Biology Europe GmbH (formerly ProQinase)
Protocol: (§1) The Kinome Screening was performed by Reaction Biology Europe GmbH (http://reactionbiology.com; Freiburg i. Br., Germany).

PKCι = biological target: T2, PKCι (Homo sapiens, UniProt P41743)
T2 construct: purchased Reaction Biology Europe GmbH (formerly ProQinase)
T2 sequence (P41743 1-596): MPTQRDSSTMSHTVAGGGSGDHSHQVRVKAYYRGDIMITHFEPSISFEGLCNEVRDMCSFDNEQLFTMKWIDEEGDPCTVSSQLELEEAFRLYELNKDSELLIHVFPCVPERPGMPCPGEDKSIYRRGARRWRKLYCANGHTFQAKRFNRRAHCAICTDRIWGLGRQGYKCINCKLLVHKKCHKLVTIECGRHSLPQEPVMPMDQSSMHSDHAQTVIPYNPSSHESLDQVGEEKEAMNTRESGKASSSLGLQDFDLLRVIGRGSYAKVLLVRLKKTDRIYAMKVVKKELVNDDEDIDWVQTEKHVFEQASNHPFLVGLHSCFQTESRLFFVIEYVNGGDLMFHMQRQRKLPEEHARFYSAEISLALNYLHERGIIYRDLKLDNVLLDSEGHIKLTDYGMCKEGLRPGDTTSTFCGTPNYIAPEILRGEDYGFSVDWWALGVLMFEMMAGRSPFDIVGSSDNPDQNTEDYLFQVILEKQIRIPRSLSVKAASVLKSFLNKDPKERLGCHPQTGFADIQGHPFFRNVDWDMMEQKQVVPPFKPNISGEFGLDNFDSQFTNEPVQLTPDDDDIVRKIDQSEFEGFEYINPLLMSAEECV
Protocol: as §1

WNK1 = biological target: T3, WNK1 (Homo sapiens, UniProt Q9H4A3)
T3 construct: purchased Reaction Biology Europe GmbH (formerly ProQinase)
Protocol: as §1

ERBB2 = biological target: T4, ERBB2 (Homo sapiens, UniProt P04626)
T4 construct: purchased Reaction Biology Europe GmbH (formerly ProQinase)
Protocol: as §1

VEGFR3 = biological target: T5, VEGFR3 (Homo sapiens, UniProt P35916)
T5 construct: purchased Reaction Biology Europe GmbH (formerly ProQinase)
Protocol: as §1

ERK5 = biological target: T6, ERK5 (Homo sapiens, UniProt Q13164)
T6 construct: purchased Reaction Biology Europe GmbH (formerly ProQinase)
Protocol: as §1

EPHA5 = biological target: T7, EPHA5 (Homo sapiens, UniProt P54756)
T7 construct: purchased Reaction Biology Europe GmbH (formerly ProQinase)
Protocol: as §1

JNK2 = biological target: T8, JNK2 (Homo sapiens, UniProt P45984)
T8 construct: purchased Reaction Biology Europe GmbH (formerly ProQinase)
Protocol: as §1

PLK3 = biological target: T9, PLK3 (Homo sapiens, UniProt Q9H4B4)
T9 construct: purchased Reaction Biology Europe GmbH (formerly ProQinase)
Protocol: as §1

SRPK2 = biological target: T10, SRPK2 (Homo sapiens, UniProt P78362)
T10 construct: purchased Reaction Biology Europe GmbH (formerly ProQinase)
Protocol: as §1

MKK7 = biological target: T11, MKK7 (Homo sapiens, UniProt O14733)
T11 construct: purchased Reaction Biology Europe GmbH (formerly ProQinase)
T11 sequence (O14733 1-419): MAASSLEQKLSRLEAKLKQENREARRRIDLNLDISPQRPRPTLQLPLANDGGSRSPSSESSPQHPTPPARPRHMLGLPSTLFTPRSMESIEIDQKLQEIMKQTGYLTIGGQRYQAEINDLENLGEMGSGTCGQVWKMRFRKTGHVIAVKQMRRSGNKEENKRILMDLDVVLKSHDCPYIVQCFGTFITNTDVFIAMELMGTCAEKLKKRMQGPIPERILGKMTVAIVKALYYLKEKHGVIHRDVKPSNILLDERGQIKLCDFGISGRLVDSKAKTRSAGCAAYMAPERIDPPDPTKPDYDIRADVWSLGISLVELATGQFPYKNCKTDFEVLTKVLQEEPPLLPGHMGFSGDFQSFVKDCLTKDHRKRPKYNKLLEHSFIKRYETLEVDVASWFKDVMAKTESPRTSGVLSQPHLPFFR
Protocol: as §1

MYLK2 = biological target: T12, MYLK2 (Homo sapiens, UniProt Q9H1R3)
T12 construct: purchased Reaction Biology Europe GmbH (formerly ProQinase)
Protocol: as §1

CLK2 = biological target: T13, CLK2 (Homo sapiens, UniProt P49760)
T13 construct: purchased Reaction Biology Europe GmbH (formerly ProQinase)
Protocol: as §1

CSK = biological target: T14, CSK (Homo sapiens, UniProt P41240)
T14 construct: purchased Reaction Biology Europe GmbH (formerly ProQinase)
Protocol: as §1

CAMK2B = biological target: T15, CAMK2B (Homo sapiens, UniProt Q13554)
T15 construct: purchased Reaction Biology Europe GmbH (formerly ProQinase)
Protocol: as §1

RPS6KA2 = biological target: T16, RPS6KA2 (Homo sapiens, UniProt Q15349)
T16 construct: purchased Reaction Biology Europe GmbH (formerly ProQinase)
Protocol: as §1

MAPKAPK3 = biological target: T17, MAPKAPK3 (Homo sapiens, UniProt Q16644)
T17 construct: purchased Reaction Biology Europe GmbH (formerly ProQinase)
Protocol: as §1

T9 sequence (Q9H4B4 whole entry): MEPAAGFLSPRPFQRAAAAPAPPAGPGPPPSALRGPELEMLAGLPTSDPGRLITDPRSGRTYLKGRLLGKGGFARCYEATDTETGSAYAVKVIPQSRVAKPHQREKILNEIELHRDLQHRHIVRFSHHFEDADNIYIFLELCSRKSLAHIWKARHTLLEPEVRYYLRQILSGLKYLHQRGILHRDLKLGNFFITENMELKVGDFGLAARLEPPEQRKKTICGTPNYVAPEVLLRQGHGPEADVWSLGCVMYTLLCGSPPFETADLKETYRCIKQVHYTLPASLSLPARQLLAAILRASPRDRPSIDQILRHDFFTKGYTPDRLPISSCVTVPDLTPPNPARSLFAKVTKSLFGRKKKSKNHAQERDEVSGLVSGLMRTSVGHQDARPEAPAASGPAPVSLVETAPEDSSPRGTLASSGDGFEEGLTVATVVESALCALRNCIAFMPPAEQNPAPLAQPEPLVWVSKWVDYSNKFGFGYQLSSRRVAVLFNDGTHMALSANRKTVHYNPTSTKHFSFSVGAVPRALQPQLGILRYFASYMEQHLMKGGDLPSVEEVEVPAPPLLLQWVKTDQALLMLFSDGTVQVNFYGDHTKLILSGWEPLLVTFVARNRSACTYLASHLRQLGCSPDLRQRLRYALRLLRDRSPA
T16 sequence (Q15349 whole entry): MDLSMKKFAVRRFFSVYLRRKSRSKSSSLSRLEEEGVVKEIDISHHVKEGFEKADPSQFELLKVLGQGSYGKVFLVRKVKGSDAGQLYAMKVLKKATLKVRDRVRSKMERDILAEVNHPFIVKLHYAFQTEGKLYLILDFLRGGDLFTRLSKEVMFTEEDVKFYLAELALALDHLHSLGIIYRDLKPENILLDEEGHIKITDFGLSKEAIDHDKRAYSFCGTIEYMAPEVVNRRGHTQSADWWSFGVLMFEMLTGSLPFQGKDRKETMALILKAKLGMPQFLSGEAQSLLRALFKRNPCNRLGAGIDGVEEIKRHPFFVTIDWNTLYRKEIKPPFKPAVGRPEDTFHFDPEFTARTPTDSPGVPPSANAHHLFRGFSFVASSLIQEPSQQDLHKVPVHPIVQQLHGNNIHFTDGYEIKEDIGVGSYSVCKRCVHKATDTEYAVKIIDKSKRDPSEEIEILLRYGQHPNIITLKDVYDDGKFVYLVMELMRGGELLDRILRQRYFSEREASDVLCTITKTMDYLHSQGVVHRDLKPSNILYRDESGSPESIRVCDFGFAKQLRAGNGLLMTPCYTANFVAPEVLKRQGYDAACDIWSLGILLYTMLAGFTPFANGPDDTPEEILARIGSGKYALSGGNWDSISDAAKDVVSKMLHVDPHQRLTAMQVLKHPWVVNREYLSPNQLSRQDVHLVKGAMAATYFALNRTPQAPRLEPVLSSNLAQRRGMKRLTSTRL
T4 sequence (P04626 23-1255): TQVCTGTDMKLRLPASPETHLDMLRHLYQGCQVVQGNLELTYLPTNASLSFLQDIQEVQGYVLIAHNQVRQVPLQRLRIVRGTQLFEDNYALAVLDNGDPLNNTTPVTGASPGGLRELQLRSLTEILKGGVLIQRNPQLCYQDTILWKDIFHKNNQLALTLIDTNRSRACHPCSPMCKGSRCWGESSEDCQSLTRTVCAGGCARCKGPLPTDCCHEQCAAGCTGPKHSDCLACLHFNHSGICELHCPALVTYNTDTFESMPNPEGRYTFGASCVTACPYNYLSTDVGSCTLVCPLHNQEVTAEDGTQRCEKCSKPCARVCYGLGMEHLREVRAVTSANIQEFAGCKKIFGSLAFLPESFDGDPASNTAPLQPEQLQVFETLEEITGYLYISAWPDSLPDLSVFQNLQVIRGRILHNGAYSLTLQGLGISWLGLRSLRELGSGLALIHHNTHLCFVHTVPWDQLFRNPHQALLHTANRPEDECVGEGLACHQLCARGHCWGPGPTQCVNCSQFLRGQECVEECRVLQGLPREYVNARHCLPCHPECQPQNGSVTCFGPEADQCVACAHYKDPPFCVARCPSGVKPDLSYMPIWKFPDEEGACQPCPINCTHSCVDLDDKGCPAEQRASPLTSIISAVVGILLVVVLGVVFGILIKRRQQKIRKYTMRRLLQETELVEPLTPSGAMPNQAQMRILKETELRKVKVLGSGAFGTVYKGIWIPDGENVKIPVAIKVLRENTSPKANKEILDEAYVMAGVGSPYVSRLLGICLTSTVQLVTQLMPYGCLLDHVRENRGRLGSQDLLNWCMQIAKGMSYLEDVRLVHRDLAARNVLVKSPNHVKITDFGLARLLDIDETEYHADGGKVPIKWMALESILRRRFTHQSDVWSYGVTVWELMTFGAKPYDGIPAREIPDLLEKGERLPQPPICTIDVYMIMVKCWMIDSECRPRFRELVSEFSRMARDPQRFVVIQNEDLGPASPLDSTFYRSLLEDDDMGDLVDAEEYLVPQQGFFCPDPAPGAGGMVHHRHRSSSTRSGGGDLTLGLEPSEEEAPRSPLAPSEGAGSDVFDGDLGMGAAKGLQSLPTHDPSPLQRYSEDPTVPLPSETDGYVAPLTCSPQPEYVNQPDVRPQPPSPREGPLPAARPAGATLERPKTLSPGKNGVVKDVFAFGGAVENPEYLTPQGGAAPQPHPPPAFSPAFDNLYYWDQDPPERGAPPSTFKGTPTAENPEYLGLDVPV
T14 sequence (P41240 whole entry): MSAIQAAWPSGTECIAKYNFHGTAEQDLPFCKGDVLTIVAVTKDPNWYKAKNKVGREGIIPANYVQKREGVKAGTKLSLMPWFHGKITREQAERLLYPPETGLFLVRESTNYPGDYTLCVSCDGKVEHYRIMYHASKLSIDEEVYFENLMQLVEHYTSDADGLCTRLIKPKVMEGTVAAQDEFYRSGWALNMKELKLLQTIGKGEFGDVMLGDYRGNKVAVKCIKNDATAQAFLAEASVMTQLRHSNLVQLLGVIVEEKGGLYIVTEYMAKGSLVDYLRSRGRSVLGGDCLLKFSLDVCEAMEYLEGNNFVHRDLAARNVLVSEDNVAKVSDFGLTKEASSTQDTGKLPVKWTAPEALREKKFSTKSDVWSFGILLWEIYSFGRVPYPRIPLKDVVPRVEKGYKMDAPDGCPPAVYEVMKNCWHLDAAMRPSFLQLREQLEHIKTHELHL
T7 sequence (P54756 25-1037): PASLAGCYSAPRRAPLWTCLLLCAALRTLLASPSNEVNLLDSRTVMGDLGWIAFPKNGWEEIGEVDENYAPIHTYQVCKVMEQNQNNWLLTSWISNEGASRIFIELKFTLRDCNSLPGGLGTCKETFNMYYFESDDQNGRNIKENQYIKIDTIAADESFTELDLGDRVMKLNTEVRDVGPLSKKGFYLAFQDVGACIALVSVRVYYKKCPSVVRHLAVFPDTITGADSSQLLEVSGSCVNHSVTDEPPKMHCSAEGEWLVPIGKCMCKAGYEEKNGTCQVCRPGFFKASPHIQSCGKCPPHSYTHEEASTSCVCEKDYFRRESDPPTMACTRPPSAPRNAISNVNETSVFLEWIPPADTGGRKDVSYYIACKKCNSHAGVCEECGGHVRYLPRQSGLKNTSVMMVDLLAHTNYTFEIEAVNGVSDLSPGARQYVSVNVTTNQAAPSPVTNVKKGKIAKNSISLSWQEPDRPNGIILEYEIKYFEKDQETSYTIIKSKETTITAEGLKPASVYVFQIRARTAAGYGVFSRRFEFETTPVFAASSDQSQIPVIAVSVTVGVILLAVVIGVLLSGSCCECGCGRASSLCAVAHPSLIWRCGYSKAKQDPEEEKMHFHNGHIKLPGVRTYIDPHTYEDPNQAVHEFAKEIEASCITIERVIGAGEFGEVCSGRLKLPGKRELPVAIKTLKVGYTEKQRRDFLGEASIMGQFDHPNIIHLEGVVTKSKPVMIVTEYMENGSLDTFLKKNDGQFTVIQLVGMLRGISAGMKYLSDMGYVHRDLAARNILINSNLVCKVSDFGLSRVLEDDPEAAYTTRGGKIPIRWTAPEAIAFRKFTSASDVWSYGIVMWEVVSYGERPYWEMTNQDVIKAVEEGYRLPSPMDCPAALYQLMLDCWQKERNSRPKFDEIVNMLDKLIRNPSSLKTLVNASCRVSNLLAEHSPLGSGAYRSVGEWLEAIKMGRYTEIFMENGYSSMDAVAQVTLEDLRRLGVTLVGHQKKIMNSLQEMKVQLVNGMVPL
T15 sequence (Q13554 whole entry): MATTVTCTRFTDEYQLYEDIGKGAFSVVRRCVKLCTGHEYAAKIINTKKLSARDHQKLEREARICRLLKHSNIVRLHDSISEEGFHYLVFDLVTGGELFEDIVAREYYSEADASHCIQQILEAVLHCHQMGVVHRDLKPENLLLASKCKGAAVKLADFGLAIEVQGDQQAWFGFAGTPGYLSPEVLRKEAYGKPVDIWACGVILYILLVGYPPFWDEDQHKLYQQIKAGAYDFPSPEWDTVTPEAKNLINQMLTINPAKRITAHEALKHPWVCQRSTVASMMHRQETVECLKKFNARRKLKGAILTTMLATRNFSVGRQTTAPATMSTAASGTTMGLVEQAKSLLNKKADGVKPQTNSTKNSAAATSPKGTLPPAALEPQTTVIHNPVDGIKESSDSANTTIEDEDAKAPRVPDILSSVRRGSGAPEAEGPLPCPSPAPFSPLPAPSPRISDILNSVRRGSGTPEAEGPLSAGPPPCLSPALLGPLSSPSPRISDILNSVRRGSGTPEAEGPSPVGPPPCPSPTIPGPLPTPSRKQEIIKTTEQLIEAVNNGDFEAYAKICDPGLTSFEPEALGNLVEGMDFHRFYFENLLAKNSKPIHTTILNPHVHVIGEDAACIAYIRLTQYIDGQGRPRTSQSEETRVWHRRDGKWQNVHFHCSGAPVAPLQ

COc1ccnc2[nH]cc(-c3cc(N)nc(N)c3)c12 [meriolin 16]
residual kinase activity (EPHA2; 0.03 µM): 109 % of control
residual kinase activity (EPHA2; 0.3 µM): 101 % of control
residual kinase activity (PKCι; 0.03 µM): 105 % of control
residual kinase activity (PKCι; 0.3 µM): 94 % of control
residual kinase activity (WNK1; 0.03 µM): 101 % of control
residual kinase activity (WNK1; 0.3 µM): 100 % of control
residual kinase activity (ERBB2; 0.03 µM): 102 % of control
residual kinase activity (ERBB2; 0.3 µM): 102 % of control
residual kinase activity (VEGFR3; 0.03 µM): 90 % of control
residual kinase activity (VEGFR3; 0.3 µM): 77 % of control
residual kinase activity (ERK5; 0.03 µM): 28 % of control
residual kinase activity (ERK5; 0.3 µM): 22 % of control
residual kinase activity (EPHA5; 0.03 µM): 115 % of control
residual kinase activity (EPHA5; 0.3 µM): 102 % of control
residual kinase activity (JNK2; 0.03 µM): 78 % of control
residual kinase activity (JNK2; 0.3 µM): 85 % of control
residual kinase activity (PLK3; 0.03 µM): 95 % of control
residual kinase activity (PLK3; 0.3 µM): 92 % of control
residual kinase activity (SRPK2; 0.03 µM): 93 % of control
residual kinase activity (SRPK2; 0.3 µM): 91 % of control
residual kinase activity (MKK7; 0.03 µM): 96 % of control
residual kinase activity (MKK7; 0.3 µM): 88 % of control
residual kinase activity (MYLK2; 0.03 µM): 65 % of control
residual kinase activity (MYLK2; 0.3 µM): 32 % of control
residual kinase activity (CLK2; 0.03 µM): 8 % of control
residual kinase activity (CLK2; 0.3 µM): 1 % of control
residual kinase activity (CSK; 0.03 µM): 114 % of control
residual kinase activity (CSK; 0.3 µM): 106 % of control
residual kinase activity (CAMK2B; 0.03 µM): 103 % of control
residual kinase activity (CAMK2B; 0.3 µM): 74 % of control
residual kinase activity (RPS6KA2; 0.03 µM): 87 % of control
residual kinase activity (RPS6KA2; 0.3 µM): 34 % of control
residual kinase activity (MAPKAPK3; 0.03 µM): 99 % of control
residual kinase activity (MAPKAPK3; 0.3 µM): 87 % of control

c1ccc(CNc2cc(-c3c[nH]c4ncccc34)ccn2)cc1 [meriolin 36]
residual kinase activity (EPHA2; 0.3 µM): 101 % of control
residual kinase activity (EPHA2; 3 µM): 72 % of control
residual kinase activity (PKCι; 0.3 µM): 75 % of control
residual kinase activity (PKCι; 3 µM): 32 % of control
residual kinase activity (WNK1; 0.3 µM): 107 % of control
residual kinase activity (WNK1; 3 µM): 98 % of control
residual kinase activity (ERBB2; 0.3 µM): 90 % of control
residual kinase activity (ERBB2; 3 µM): 44 % of control
residual kinase activity (VEGFR3; 0.3 µM): 64 % of control
residual kinase activity (VEGFR3; 3 µM): 23 % of control
residual kinase activity (ERK5; 0.3 µM): 13 % of control
residual kinase activity (ERK5; 3 µM): 8 % of control
residual kinase activity (EPHA5; 0.3 µM): 146 % of control
residual kinase activity (EPHA5; 3 µM): 84 % of control
residual kinase activity (JNK2; 0.3 µM): 63 % of control
residual kinase activity (JNK2; 3 µM): 29 % of control
residual kinase activity (PLK3; 0.3 µM): 97 % of control
residual kinase activity (PLK3; 3 µM): 87 % of control
residual kinase activity (SRPK2; 0.3 µM): 87 % of control
residual kinase activity (SRPK2; 3 µM): 55 % of control
residual kinase activity (MKK7; 0.3 µM): 81 % of control
residual kinase activity (MKK7; 3 µM): 48 % of control
residual kinase activity (MYLK2; 0.3 µM): 61 % of control
residual kinase activity (MYLK2; 3 µM): 26 % of control
residual kinase activity (CLK2; 0.3 µM): 1 % of control
residual kinase activity (CLK2; 3 µM): 2 % of control
residual kinase activity (CSK; 0.3 µM): 116 % of control
residual kinase activity (CSK; 3 µM): 71 % of control
residual kinase activity (CAMK2B; 0.3 µM): 83 % of control
residual kinase activity (CAMK2B; 3 µM): 31 % of control
residual kinase activity (RPS6KA2; 0.3 µM): 6 % of control
residual kinase activity (RPS6KA2; 3 µM): 0 % of control
residual kinase activity (MAPKAPK3; 3 µM): 90 % of control
